The structures appear in SMILES notation.

What all share (format): cell-based
Assay [1] addresses T1, CFTR ΔF508 mutant (Homo sapiens, UniProt P13569, DEL508-508).
T1 construct: expressed in transfected cells; host or cells: CFBE41o- (adenoviral transduction)
The experiment in a line: YFP-halide influx assay for the CFTR-ΔF508 mutation, PBS buffer (96 well). Conditions: CFBE41o- cells, forskolin 10.67 μM. The method in brief:
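CFBE41o- cells were adenovirally transduced with CFTR ΔF508 and YFP H148Q/I152L, then incubated 24 h at 27 °C or with a CFTR modulator at 37 °C. I⁻-induced fluorescence quenching was recorded over 7 s after injection; response expressed as 1−F/F0, with EC50 from concentration plots.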

For the next assay, the target named is T2, CFTR G551D mutant (Homo sapiens, UniProt P13569, G551D).
T2 construct: expressed in transfected cells; host or cells: HEK293 (reverse transfection with plasmid)
Kind of assay: YFP-halide influx assay for the CFTR-G551D mutation. The following applies: HEK293 cells, forskolin 10.67 μM. The method in brief: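 HEK293 cells reverse-transfected with CFTR G551D and YFP H148Q/I152L/F47L halide sensor, expressed 24 h at 37 °C. Iodide-induced fluorescence quench recorded 7 s after I− injection; response = 1−F/F0, with EC50 from plot against compound concentration.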

Assay [2] concerns the target T1, CFTR ΔF508 mutant. The experiment in a line: YFP-halide influx assay for the CFTR-ΔF508 mutation (384 well, FDSS/μCell). Conditions: CFBE41o- cells, CFTR-ΔF508, 1×D-PBS, fluorescence after 36 seconds. The method in brief:
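Potentiator read-out as 1−F/F0, F taken 36 s after iodide addition, EC50 fitted against compound concentration. Cells: CFBE41o- expressing ΔF508 CFTR plus halide-sensitive YFP via adenovirus, rescued by 27 °C for 24 h or 24 h modulator at 37 °C.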

Assay [3] has as its target T1, CFTR ΔF508 mutant. Kind of assay: YFP-halide influx assay for the CFTR-ΔF508 mutation, gluconate buffer. Conditions: CFBE41o- cells, forskolin 10.67 μM. The method in brief: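 CFBE41o- cells adenovirally transduced with CFTR ΔF508 and YFP H148Q/I152L, then held 24 h at 27 °C or treated with CFTR modulator 24 h at 37 °C. I− quenching recorded for 7 s after injection; activity as 1-F/F0, EC50 from concentration plot.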

T1 sequence (P13569 with tags, fused parts or gaps DEL508-508): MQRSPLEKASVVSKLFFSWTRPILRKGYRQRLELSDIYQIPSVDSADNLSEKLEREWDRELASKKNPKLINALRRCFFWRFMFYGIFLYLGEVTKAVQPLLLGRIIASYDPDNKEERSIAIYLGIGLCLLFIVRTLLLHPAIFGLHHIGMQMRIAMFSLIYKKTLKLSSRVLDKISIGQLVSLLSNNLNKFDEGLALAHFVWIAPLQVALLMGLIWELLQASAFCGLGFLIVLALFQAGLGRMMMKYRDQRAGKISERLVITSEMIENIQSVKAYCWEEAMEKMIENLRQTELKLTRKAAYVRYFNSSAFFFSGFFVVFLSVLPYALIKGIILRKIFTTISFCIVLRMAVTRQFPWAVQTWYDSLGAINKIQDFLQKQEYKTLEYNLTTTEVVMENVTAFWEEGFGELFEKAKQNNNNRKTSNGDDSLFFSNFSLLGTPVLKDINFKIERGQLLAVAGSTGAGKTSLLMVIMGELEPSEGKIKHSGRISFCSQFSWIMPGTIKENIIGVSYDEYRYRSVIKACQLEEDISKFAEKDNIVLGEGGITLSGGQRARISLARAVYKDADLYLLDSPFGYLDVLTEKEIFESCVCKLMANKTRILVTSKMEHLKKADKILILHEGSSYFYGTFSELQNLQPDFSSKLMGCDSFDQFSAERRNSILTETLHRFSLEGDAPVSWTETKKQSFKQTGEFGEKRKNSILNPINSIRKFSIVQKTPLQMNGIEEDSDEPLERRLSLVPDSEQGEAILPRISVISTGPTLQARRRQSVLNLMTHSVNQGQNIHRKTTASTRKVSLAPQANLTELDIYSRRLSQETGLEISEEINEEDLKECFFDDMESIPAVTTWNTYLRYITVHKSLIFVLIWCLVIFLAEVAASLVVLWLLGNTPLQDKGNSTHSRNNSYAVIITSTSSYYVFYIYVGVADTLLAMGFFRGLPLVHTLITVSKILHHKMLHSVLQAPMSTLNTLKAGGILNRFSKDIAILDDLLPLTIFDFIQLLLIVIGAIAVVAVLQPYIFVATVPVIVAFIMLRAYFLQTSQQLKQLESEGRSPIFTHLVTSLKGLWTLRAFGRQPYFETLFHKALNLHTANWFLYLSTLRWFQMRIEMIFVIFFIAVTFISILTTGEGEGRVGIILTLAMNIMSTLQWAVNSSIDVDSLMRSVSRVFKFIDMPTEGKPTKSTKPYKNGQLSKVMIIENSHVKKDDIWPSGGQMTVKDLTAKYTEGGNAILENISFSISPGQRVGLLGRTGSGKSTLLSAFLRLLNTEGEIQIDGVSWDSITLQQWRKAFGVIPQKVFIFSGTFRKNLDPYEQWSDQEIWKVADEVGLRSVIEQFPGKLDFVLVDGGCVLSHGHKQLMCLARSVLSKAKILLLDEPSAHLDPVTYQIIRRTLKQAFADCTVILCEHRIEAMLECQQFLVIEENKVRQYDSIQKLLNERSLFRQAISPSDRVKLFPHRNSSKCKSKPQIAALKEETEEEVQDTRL
T2 sequence (P13569 whole entry G551D): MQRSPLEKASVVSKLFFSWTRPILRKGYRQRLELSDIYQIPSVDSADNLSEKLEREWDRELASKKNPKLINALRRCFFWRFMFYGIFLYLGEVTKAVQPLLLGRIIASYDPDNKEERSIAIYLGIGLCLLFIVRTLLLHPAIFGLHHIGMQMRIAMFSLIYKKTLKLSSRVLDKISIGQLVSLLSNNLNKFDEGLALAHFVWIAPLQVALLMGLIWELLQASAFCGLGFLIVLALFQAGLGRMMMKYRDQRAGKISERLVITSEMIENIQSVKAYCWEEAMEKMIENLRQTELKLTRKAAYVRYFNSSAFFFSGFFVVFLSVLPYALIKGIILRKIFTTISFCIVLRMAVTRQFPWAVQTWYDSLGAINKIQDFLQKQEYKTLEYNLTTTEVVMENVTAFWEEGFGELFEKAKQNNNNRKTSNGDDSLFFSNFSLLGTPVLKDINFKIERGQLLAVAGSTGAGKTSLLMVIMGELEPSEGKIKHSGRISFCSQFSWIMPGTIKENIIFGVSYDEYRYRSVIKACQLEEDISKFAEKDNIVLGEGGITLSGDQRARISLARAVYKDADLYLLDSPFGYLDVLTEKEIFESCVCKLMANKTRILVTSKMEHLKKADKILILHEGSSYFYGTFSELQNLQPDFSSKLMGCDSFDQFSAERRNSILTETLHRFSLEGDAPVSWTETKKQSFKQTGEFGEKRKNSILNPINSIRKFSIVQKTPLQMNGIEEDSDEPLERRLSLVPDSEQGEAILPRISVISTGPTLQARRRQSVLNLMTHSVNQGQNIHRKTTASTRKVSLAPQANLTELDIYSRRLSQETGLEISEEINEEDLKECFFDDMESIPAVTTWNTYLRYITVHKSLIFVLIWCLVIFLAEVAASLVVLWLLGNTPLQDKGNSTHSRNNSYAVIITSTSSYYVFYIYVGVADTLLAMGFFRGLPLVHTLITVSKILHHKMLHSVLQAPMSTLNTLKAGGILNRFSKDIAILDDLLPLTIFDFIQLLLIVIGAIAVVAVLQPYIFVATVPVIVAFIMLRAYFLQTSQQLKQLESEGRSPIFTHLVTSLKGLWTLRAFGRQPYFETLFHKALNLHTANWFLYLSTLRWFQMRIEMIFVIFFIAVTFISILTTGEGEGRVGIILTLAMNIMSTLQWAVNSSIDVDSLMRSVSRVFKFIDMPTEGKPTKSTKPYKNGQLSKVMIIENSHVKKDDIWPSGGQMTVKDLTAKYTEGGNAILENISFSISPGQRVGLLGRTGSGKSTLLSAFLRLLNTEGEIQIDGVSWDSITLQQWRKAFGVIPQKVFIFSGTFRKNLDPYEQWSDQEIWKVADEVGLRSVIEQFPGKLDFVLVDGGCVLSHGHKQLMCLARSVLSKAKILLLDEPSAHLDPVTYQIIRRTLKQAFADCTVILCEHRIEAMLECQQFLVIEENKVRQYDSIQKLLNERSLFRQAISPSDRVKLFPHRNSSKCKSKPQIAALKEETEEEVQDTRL

As usually defined, the EC50 is the concentration that produces a half-maximal response. Read a low EC50 as a more potent agent. For the compound `NC(=O)c1cc(S(=O)(=O)N2CCOCC2)sc1NC(=O)c1ccccc1C(F)(F)F` [Compound 78, 5-(morpholinosulfonyl)-2-(2-(trifluoromethyl)benzamido)thiophene-3-carboxamide], the EC50 on CFTR ΔF508 mutant [1] was determined as 220 nM; on CFTR G551D mutant, 3070 nM; on CFTR ΔF508 mutant [2], 146 nM; on CFTR ΔF508 mutant [3], 401 nM.

Take `CC(C)(C)C(=O)Nc1sc(S(=O)(=O)c2cccc(F)c2)cc1C(N)=O` [Compound 122, 5-(3-fluorophenylsulfonyl)-2-pivalamidothiophene-3-carboxamide]: the EC50 at CFTR ΔF508 mutant [1] was 114 nM; on CFTR G551D mutant it was 5680 nM; on CFTR ΔF508 mutant [2] it was 68.4 nM; on CFTR ΔF508 mutant [3] it was 293 nM.

Regarding `NC(=O)c1cc(S(=O)(=O)N2CCOCC2)sc1NC(=O)c1c(O)cc(F)cc1F` [Compound 212, 2-(2,4-difluoro-6-hydroxybenzamido)-5-(morpholinosulfonyl) thiophene-3-carboxamide], the EC50 at CFTR ΔF508 mutant [1] was found to be 70.3 nM; on CFTR ΔF508 mutant [3] it was 184 nM.

As to `NC(=O)c1cc(S(=O)(=O)N2CCC(F)(F)CC2)sc1NC(=O)c1c(O)cc(F)cc1F` [Compound 214, 2-(2,4-difluoro-6-hydroxybenzamido)-5-(4,4-difluoropiperidin-1-ylsulfonyl) thiophene-3-carboxamide], the EC50 is 37.2 nM at CFTR ΔF508 mutant [1], 25.8 nM on CFTR ΔF508 mutant [2] and 117 nM on CFTR ΔF508 mutant [3].

Regarding `CC(C)c1cc(C(=O)Nc2sc(S(=O)(=O)N3CCC(F)(F)CC3)cc2C(N)=O)c(O)c(C(C)C)c1` [Compound 215, 5-(4,4-difluoropiperidin-1-ylsulfonyl)-2-(2-hydroxy-3,5-diisopropylbenzamido) thiophene-3-carboxamide], the EC50 amounted to 862 nM on CFTR ΔF508 mutant [1] and 292 nM at CFTR ΔF508 mutant [3].

Turning to `Cc1cccc(C(=O)Nc2sc(S(=O)(=O)N3CCOCC3)cc2C(N)=O)c1O` [Compound 216, 2-(2-hydroxy-3-methylbenzamido)-5-(morpholinosulfonyl) thiophene-3-carboxamide], the EC50 at CFTR ΔF508 mutant [1] was 216 nM; on CFTR ΔF508 mutant [3], 709 nM.

On to `CC(C)(CO)C(=O)Nc1sc(S(=O)(=O)N2CCC(F)(F)CC2)cc1C(N)=O` [Compound 217, 5-(4,4-difluoropiperidin-1-ylsulfonyl)-2-(3-hydroxy-2,2-dimethylpropanamido) thiophene-3-carboxamide], for which the EC50 came to 164 nM on CFTR ΔF508 mutant [1] and 195 nM at CFTR ΔF508 mutant [3].

In the case of `CN(CC1CC1)S(=O)(=O)c1cc(C(N)=O)c(NC(=O)c2ccccc2F)s1` [Compound 218, 5-(N-(cyclopropylmethyl)-N-methylsulfamoyl)-2-(2-fluorobenzamido) thiophene-3-carboxamide], the EC50 at CFTR ΔF508 mutant [1] worked out at 72.7 nM; on CFTR G551D mutant, 410 nM; at CFTR ΔF508 mutant [3], 196 nM.

Consider `CC(C)(O)C(=O)Nc1sc(S(C)(=O)=O)cc1C(N)=O` [Compound 219, 2-(2-hydroxy-2-methylpropanamido)-5-(methylsulfonyl) thiophene-3-carboxamide], for which the EC50 on CFTR ΔF508 mutant [1] and on CFTR ΔF508 mutant [3] was > 1000 nM throughout.

For `CC(C)S(=O)(=O)c1cc(C(N)=O)c(NC(=O)C(C)(C)O)s1` [Compound 220, 2-(2-hydroxy-2-methylpropanamido)-5-(isopropylsulfonyl) thiophene-3-carboxamide], the EC50 was 2310 nM on CFTR ΔF508 mutant [1] and > 1000 nM on CFTR ΔF508 mutant [3].

`CC(C)Oc1cc(F)ccc1S(=O)(=O)c1cc(C(N)=O)c(NC(=O)C(C)(C)O)s1` [Compound 281, 5-(4-fluoro-2-isopropoxyphenylsulfonyl)-2-(2-hydroxy-2-methylpropanamido) thiophene-3-carboxamide]: the EC50 on CFTR ΔF508 mutant [1] was determined as 41.1 nM; at CFTR G551D mutant, 1540 nM; at CFTR ΔF508 mutant [2] it was 136 nM.

As to `CC(C)(O)C(=O)Nc1sc(S(=O)(=O)c2ccc(F)cc2OC(F)F)cc1C(N)=O` [Compound 283, 5-(2-(difluoromethoxy)-4-fluorophenylsulfonyl)-2-(2-hydroxy-2-methylpropanamido) thiophene-3-carboxamide], the EC50 at CFTR ΔF508 mutant [1] was found to be 47.7 nM; on CFTR G551D mutant, 564 nM; on CFTR ΔF508 mutant [2] it was 69.6 nM.

As to `COc1ccc(S(=O)(=O)c2cc(C(N)=O)c(NC(=O)C(C)(C)O)s2)c(OC(F)F)c1` [Compound 284, 5-(2-(difluoromethoxy)-4-methoxyphenylsulfonyl)-2-(2-hydroxy-2-methylpropanamido) thiophene-3-carboxamide], the EC50 on CFTR ΔF508 mutant [1] stood at 51 nM; at CFTR G551D mutant, 793 nM; at CFTR ΔF508 mutant [2] it was 85.2 nM.

`CC(C)(O)C(=O)Nc1sc(S(=O)(=O)c2ccccc2C(F)(F)F)cc1C(N)=O` [Compound 289, 2-(2-hydroxy-2-methylpropanamido)-5-(2-(trifluoromethyl)phenylsulfonyl) thiophene-3-carboxamide]: the EC50 was determined as 31.1 nM on CFTR ΔF508 mutant [1], 191 nM at CFTR G551D mutant and 28.4 nM at CFTR ΔF508 mutant [2].

For `C[C@H](O)C(=O)Nc1sc(S(=O)(=O)c2ccc(F)cc2)cc1C(N)=O` [Compound 291, (S)-5-(4-fluorophenylsulfonyl)-2-(2-hydroxypropanamido) thiophene-3-carboxamide], the EC50 at CFTR ΔF508 mutant [1] is 81.2 nM; at CFTR G551D mutant, 1510 nM; on CFTR ΔF508 mutant [2] it was 17.3 nM.

In the case of `CN(C)c1cccc(S(=O)(=O)c2cc(C(N)=O)c(NC(=O)C(C)(C)O)s2)c1` [Compound 292, 5-(3-(dimethylamino)phenylsulfonyl)-2-(2-hydroxy-2-methylpropanamido) thiophene-3-carboxamide], the figures for the EC50 at CFTR ΔF508 mutant [1], at CFTR G551D mutant and at CFTR ΔF508 mutant [2] were 70 nM, 2280 nM and 182 nM, respectively.

`CC(C)c1ccccc1S(=O)(=O)c1cc(C(N)=O)c(NC(=O)C(C)(C)O)s1` [Compound 293, 2-(2-hydroxy-2-methylpropanamido)-5-(2-isopropylphenylsulfonyl) thiophene-3-carboxamide]: the figures for the EC50 at CFTR ΔF508 mutant [1], on CFTR G551D mutant and at CFTR ΔF508 mutant [2] were 15.1 nM, 110 nM and 7.6 nM, respectively.

For `COc1ccc(F)cc1S(=O)(=O)c1cc(C(N)=O)c(NC(=O)C(C)(C)O)s1` [Compound 295, 5-(5-fluoro-2-methoxyphenylsulfonyl)-2-(2-hydroxy-2-methylpropanamido) thiophene-3-carboxamide], the EC50 on CFTR ΔF508 mutant [1] was found to be 95.2 nM; at CFTR G551D mutant, 1010 nM; at CFTR ΔF508 mutant [2], 35.6 nM.

Consider `CC(C)(O)C(=O)Nc1sc(S(=O)(=O)c2ccccc2CC(F)(F)F)cc1C(N)=O` [Compound 302, 2-(2-hydroxy-2-methylpropanamido)-5-(2-(2,2,2-trifluoroethyl)phenylsulfonyl) thiophene-3-carboxamide], for which the EC50 at CFTR ΔF508 mutant [1] came to 11.3 nM; at CFTR G551D mutant, 307 nM; at CFTR ΔF508 mutant [2], 8.1 nM.

In the case of `CC(C)(O)C(=O)Nc1sc(S(=O)(=O)c2cc(Cl)ccc2F)cc1C(N)=O` [Compound 303, 5-(5-chloro-2-fluorophenylsulfonyl)-2-(2-hydroxy-2-methylpropanamido) thiophene-3-carboxamide], the EC50 was 37.5 nM at CFTR ΔF508 mutant [1], 1670 nM at CFTR G551D mutant and 8.5 nM on CFTR ΔF508 mutant [2].

Turning to `CN(c1ccc(F)cc1)S(=O)(=O)c1cc(C(N)=O)c(NC(=O)C(C)(C)O)s1` [Compound 304, 5-(N-(4-fluorophenyl)-N-methylsulfamoyl)-2-(2-hydroxy-2-methylpropanamido) thiophene-3-carboxamide], the figures for the EC50 on CFTR ΔF508 mutant [1], at CFTR G551D mutant and on CFTR ΔF508 mutant [2] were 78.5 nM, 3330 nM and 109 nM, respectively.

Consider `CN(Cc1ccc(F)cc1)S(=O)(=O)c1cc(C(N)=O)c(NC(=O)C(C)(C)O)s1` [Compound 305, 5-(N-(4-fluorobenzyl)-N-methylsulfamoyl)-2-(2-hydroxy-2-methylpropanamido) thiophene-3-carboxamide], for which the EC50 came out at 31.5 nM at CFTR ΔF508 mutant [1], 803 nM at CFTR G551D mutant and 23.9 nM on CFTR ΔF508 mutant [2].

Regarding `CC(C)(O)C(=O)Nc1sc(S(=O)(=O)N2CCOc3ccccc32)cc1C(N)=O` [Compound 307, 5-(2H-benzo[b][1,4]oxazin-4(3H)-ylsulfonyl)-2-(2-hydroxy-2-methylpropanamido) thiophene-3-carboxamide], the EC50 at CFTR ΔF508 mutant [1] stood at 32.8 nM; at CFTR G551D mutant, 793 nM; on CFTR ΔF508 mutant [2] it was 28.5 nM.

Regarding `CC(C)(O)C(=O)Nc1sc(S(=O)(=O)c2ccc3c(c2)OC(F)(F)O3)cc1C(N)=O` [Compound 310, 5-(2,2-difluorobenzo[d][1,3]dioxol-5-ylsulfonyl)-2-(2-hydroxy-2-methylpropanamido) thiophene-3-carboxamide], the EC50 at CFTR ΔF508 mutant [1] stood at 42.6 nM; at CFTR G551D mutant, 1760 nM; at CFTR ΔF508 mutant [2], 66.1 nM.

With `CC(O)C(=O)Nc1sc(S(=O)(=O)c2ccccc2OC(F)(F)F)cc1C(N)=O` (centres unmarked) [Compound 311, 2-(2-hydroxypropanamido)-5-(2-(trifluoromethoxy)phenylsulfonyl) thiophene-3-carboxamide], the values for the EC50 at CFTR ΔF508 mutant [1], at CFTR G551D mutant and at CFTR ΔF508 mutant [2] were 15.2 nM, 607 nM and 3.5 nM, respectively.

The values are drawn from patent publication US9382254B2, “Compounds and pharmaceutical compositions thereof for the treatment of cystic fibrosis” (Galapagos NV, priority 2013, dated 2016).
